Among the data in PubChem BioAssay AID1645862 (Buhrlage Lab, Dana-Farber Cancer Institute and Novartis …, 2021) are IC50 values, retold here.

The source made the active and inactive calls. No rule for the calls is given here. Where only a bound is given, the exact number is not on record here.

For this test, the target named is Ubiquitin carboxyl-terminal hydrolase 8 (Homo sapiens) (UniProt P40818). As to the kind of experiment: Ubiquitin-specific protease 8 inhibitors, concentration-effect, biochemical, validation of initial actives (AID 1645862).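 Also: potency reflects inhibition of USP8 cleavage of a ubiquitin rhodamine substrate.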 The note with it: recombinant USP8 deubiquitinase activity assay.
Ubiquitin carboxyl-terminal hydrolase 8 (Homo sapiens), sequence (P40818 whole entry, looked up): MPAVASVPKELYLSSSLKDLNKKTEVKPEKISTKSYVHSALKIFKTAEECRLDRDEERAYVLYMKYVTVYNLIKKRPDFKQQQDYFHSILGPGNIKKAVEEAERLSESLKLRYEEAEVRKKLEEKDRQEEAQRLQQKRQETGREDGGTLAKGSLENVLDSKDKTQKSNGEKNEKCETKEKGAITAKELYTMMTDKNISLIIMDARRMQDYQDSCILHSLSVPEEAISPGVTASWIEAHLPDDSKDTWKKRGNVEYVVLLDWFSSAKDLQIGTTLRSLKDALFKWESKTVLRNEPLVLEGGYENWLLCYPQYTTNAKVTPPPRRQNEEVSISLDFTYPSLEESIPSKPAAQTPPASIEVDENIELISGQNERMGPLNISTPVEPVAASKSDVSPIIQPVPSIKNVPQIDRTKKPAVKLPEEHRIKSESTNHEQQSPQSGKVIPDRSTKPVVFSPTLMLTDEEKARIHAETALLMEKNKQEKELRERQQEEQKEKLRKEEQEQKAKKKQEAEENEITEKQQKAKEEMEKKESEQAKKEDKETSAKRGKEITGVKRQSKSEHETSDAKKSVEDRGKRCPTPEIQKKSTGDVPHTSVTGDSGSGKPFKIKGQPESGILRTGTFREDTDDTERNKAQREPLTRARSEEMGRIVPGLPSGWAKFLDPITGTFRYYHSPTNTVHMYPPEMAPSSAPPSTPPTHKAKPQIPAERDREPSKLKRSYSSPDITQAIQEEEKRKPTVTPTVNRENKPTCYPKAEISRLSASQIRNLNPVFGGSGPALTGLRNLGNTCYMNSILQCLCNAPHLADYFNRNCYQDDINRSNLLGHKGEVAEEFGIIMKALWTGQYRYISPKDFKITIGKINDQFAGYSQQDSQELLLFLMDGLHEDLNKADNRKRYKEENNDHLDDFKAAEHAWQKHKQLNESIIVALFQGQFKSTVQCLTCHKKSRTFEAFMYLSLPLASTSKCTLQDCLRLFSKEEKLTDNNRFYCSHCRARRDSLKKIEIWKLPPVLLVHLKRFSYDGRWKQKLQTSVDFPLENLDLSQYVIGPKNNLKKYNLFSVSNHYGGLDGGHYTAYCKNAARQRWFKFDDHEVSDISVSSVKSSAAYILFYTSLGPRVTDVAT
Regarding `O=C(CCc1ccc(F)cc1)N1CCOC(CCc2cc(=O)[nH]cn2)C1` (stereo unspecified), the IC50 is > 40 µM (inactive).

As to `CCOc1ccc2c(c1)c(=O)c(C(=O)c1ccc(C)cc1)cn2CC(=O)Nc1ccc(OC)c(OC)c1`, the IC50 is > 40 µM (inactive).

Consider `Cc1c(OCC(=O)NCc2ccccc2Cl)ccc2c3c(c(=O)oc12)CCC3`, for which the IC50 is > 40 µM (inactive).

`O=C(NC1CCCC1)c1ccc(-c2ccc(S(=O)(=O)NCc3ccccc3)cc2)cc1`: the IC50 is > 40 µM (inactive).

With `COc1ccc(NC(=O)CC(=O)c2ccc([N+](=O)[O-])cc2)cc1S(=O)(=O)Nc1ccc(Cl)cc1`, the IC50 is > 40 µM (inactive).

With `Cc1ccc(Cn2c(=O)c3ncccc3n(CC(=O)NCc3ccc(F)cc3)c2=O)cc1`, the IC50 was > 40 µM (inactive).

Consider `Cc1cc(O)c2c3c(c(O)cc2c1)C(=O)c1c(O)cccc1C3=O`, for which the IC50 is 1.46 µM.

Turning to `Oc1cccc2nc3c(O)cccc3nc12`, the IC50 was 8.85 µM.

On to `CCOc1ccc(NC(=O)Cn2c(=O)n(CCCCCC(=O)NCc3ccc(F)cc3)c(=O)c3sccc32)cc1`, for which the IC50 was > 40 µM (inactive).

For `COc1ccc(-n2ccc(=O)c(-c3nc(-c4ccc(F)cc4)no3)n2)cc1`, the IC50 was > 40 µM (inactive).

In the case of `COc1ccc2c(c1)CCc1c-2n[nH]c1C(=O)Nc1cc(C)on1`, the IC50 was > 40 µM (inactive).

For `O=C(CCCc1nnc2c(=O)n(-c3cccc(F)c3)ccn12)Nc1ccccc1`, the IC50 is > 40 µM (inactive).

For the compound `CC(C)CC(NC(=O)c1ccc(Cl)cc1Cl)c1nc2ccccc2[nH]1` (stereo unspecified), the IC50 was > 40 µM (inactive).

For the compound `Cc1cccc(C(=O)OCC(=O)Nc2ccc3[nH]c(=O)[nH]c3c2)c1C`, the IC50 is > 40 µM (inactive).

Take `O=C(Cn1cnc(-c2noc(-c3ccc(F)cc3)n2)c1)Nc1ccccc1F`: the IC50 was > 40 µM (inactive).

Take `Cc1cc(=O)[nH]c(NC2CCN(S(=O)(=O)c3ccccc3C(F)(F)F)CC2)n1`: the IC50 is > 40 µM (inactive).

Regarding `O=c1[nH]c(C2CCN(S(=O)(=O)c3ccc(S(=O)(=O)NC4CCCC4)cc3)CC2)nc2c1nnn2Cc1cccc(Cl)c1`, the IC50 is > 40 µM (inactive).

Turning to `O=C(COc1nc2ccccc2nc1N1CCOCC1)NC(c1ccccc1)c1ccccc1`, the IC50 was > 40 µM (inactive).

Turning to `COC(=O)c1ccccc1NC(=O)CSc1nnc(CNc2ccc(F)cc2)n1CC1CCCO1` (stereo unspecified), the IC50 was > 40 µM (inactive).

As for `COc1ccc(CNC(=O)C2CCCN(S(=O)(=O)Cc3ccc(Cl)cc3)C2)cc1` (stereo unspecified), the IC50 was > 40 µM (inactive).

Regarding `CNc1ncc(C(=O)N2CCOC(C(=O)N3CCCCCC3)C2)cn1` (stereo unspecified), the IC50 is > 40 µM (inactive).

As for `O=C(c1ccccn1)N1CCC2(CC1)CC1(CO2)Nc2ccccc2-n2cccc21` (stereo unspecified), the IC50 is 23.1 µM.

On to `Cc1ccc(C)c(NC(=O)Cn2cc(C(=O)C3CC3)c3ccccc32)c1`, for which the IC50 was 27.3 µM.

On to `Cc1cccc(OCC2=NN3C(=N)/C(=C\c4cc(C)n(-c5cc(C)cc(C)c5)c4C)C(=O)N=C3S2)c1`, for which the IC50 is > 40 µM (inactive).

Regarding `Cc1cc(OCC(=O)Nc2ccc3c(c2)NC(=O)CO3)ccc1Cl`, the IC50 was > 40 µM (inactive).

`CC(C)=CCOC(C)(C)[C@H]1OC2CC[C@@]3(C)C(CCC4Cc5c([nH]c6ccccc56)[C@@]43C)C23OC3[C@@H]1O` (stereo partly specified): the IC50 is 35 µM.

On to `O=C(Nc1nnc(-c2cccc([N+](=O)[O-])c2)o1)C1CCN(S(=O)(=O)c2ccc3c(c2)CCC3)CC1`, for which the IC50 is > 40 µM (inactive).

For `Fc1ccccc1-c1nnc(C2(c3ccc4c(c3)OCO4)CCOCC2)o1`, the IC50 was > 40 µM (inactive).

For the compound `COc1ccc(N(CC(=O)NC2CCCCC2)C(=O)c2ccc(-c3ccccc3)[nH]2)cc1OC`, the IC50 was > 40 µM (inactive).

Turning to `CN1C(=O)COc2cc(-c3noc(C(=O)NCc4ccc(F)cc4)n3)ccc21`, the IC50 is > 40 µM (inactive).

For `Cc1ccc(-n2c(=O)c3ccc(C(=O)NCc4ccco4)cc3n(CC(=O)NCCC3=CCCCC3)c2=O)cc1`, the IC50 was > 40 µM (inactive).

As to `COc1ccc(OC)c(NC(=O)Cn2c(=O)n(C3CCCCC3)c(=O)c3ccccc32)c1`, the IC50 was > 40 µM (inactive).

As for `Cc1cc(Cl)ccc1NC(=O)c1cc(-c2cccnc2)n[nH]1`, the IC50 was > 40 µM (inactive).

For `COCC(=O)N1CCC(n2c(C3CC3)nc3sc(C)c(C)c3c2=O)CC1`, the IC50 was > 40 µM (inactive).

On to `COc1ccc(C2/C(=C(\O)c3ccccc3)C(=O)C(=O)N2c2nc3ccc(F)cc3s2)cc1` (stereo unspecified), for which the IC50 is 27.2 µM.

On to `Cc1[nH]nc(NC(=O)C2COc3ccccc3O2)c1-c1ccccc1` (stereo unspecified), for which the IC50 was 37.3 µM.

For `Cc1cc(Cl)ccc1NC(=O)c1cc(-c2ccncc2)n[nH]1`, the IC50 was > 40 µM (inactive).

Turning to `COc1ccc(C)cc1NC(=O)Nc1nnc(CC(=O)NCc2ccccc2)s1`, the IC50 was > 40 µM (inactive).

Consider `COc1ccccc1-c1nc(-c2cn(-c3ccc(F)cc3)nn2)no1`, for which the IC50 is 27.8 µM.

Take `COc1cccc(NC(=O)c2cnc(N3CCCC3)nc2C)c1`: the IC50 is > 40 µM (inactive).

Regarding `Cc1ccc(C(=O)O)cc1NC(=O)C(Sc1cccc(NC(=O)c2ccccc2C)c1)c1ccccc1` (stereo unspecified), the IC50 was > 40 µM (inactive).

In the case of `COc1ccc2c(c1)c(CC(=O)Nc1ccc(N3CCOCC3)cc1)c(C)n2C(=O)c1ccc(Cl)cc1`, the IC50 is > 40 µM (inactive).

Regarding `Cc1nc(-c2noc(-c3cccc(F)c3)n2)cn1CC(=O)Nc1ccccc1`, the IC50 was 39.2 µM.

As to `Cc1c(C(=O)Nc2ccc(Oc3ccccc3)cc2)nnn1-c1cccc(Cl)c1`, the IC50 is > 40 µM (inactive).

For the compound `Cc1cccc(C(=O)OCC(=O)Nc2ccc3[nH]c(=O)[nH]c3c2)c1`, the IC50 was > 40 µM (inactive).

As for `COC(=O)c1ccc(NC(=O)c2ccc(COc3cc(Cl)ccc3Cl)cc2)cc1`, the IC50 was > 40 µM (inactive).

In the case of `Cc1[nH]n2c(=O)c(Cl)c(-c3ccccc3)nc2c1-c1ccccc1`, the IC50 was > 40 µM (inactive).

`COc1ccc2nc(-c3ccc(NC(=O)c4cccc(OC)c4OC)cc3)cn2n1`: the IC50 was > 40 µM (inactive).

Regarding `O=C(COc1ncnc2sc3c(c12)CCCC3)Nc1ccc2c(c1)OCO2`, the IC50 is > 40 µM (inactive).

On to `Cc1ccccc1-c1noc(-c2ccccc2OCC(=O)NC(C)C)n1`, for which the IC50 was > 40 µM (inactive).

On to `O=C(COc1ccccc1-c1nnc(-c2ccccc2)o1)NCCc1ccco1`, for which the IC50 is 29.1 µM.

For `Cc1ccc(C(=O)NC(C)c2ccccc2)cc1NC(=O)c1nsc2ccccc12` (stereo unspecified), the IC50 is > 40 µM (inactive).

Consider `COc1ccc(NC(=O)c2nnc(C(=O)NCc3ccccc3F)s2)cc1`, for which the IC50 was > 40 µM (inactive).

`COc1cccc(NC(=O)C2C3C=CC4(O3)C2C(=O)N(CCc2ccc(Cl)cc2)C4C(=O)NC2CCCCC2)c1` (stereo unspecified): the IC50 is > 40 µM (inactive).

For `COc1ccc(NC(=O)c2nnc(C(=O)NCCN3CCCCCC3)s2)cc1`, the IC50 is > 40 µM (inactive).

With `CC(=O)Nc1ccc(C(=O)/C=C2\NCCc3cc4c(cc32)OCCCO4)cc1`, the IC50 is > 40 µM (inactive).

Consider `O=C(Cn1c(-c2ccccc2)ncc(C(=O)NC2CC2)c1=O)Nc1ccccc1`, for which the IC50 was > 40 µM (inactive).

With `Cc1ccc(NC(=O)c2ccc3nn(CC(=O)Nc4ccc(F)cc4F)c(=O)n3c2)cc1`, the IC50 is > 40 µM (inactive).

As for `Cc1cc(C)c(NC(=O)Cn2c(SCc3cccc(F)c3)nc3cccnc32)c(C)c1`, the IC50 was > 40 µM (inactive).

For the compound `c1cncc(-c2cnc3sc(NCc4ccc5c(c4)OCO5)nn23)c1`, the IC50 was > 40 µM (inactive).

With `O=C(Cn1c(COc2ccccc2)nc2ccccc21)Nc1cc(Cl)ccc1Cl`, the IC50 is > 40 µM (inactive).

`Cc1ccc(N2CC(c3nnc(NC(=O)CCc4ccccc4)s3)CC2=O)cc1` (stereo unspecified): the IC50 was > 40 µM (inactive).

Turning to `N#Cc1cn2c(nc1-c1ccc(Cl)cc1)nc1ccccc12`, the IC50 is > 40 µM (inactive).

Turning to `O=C(c1cnc2[nH][nH]c(=O)c2c1)c1cc(Cl)cc(Cl)c1O`, the half-maximal inhibitory concentration (IC50) is 10.7 µM.

For the compound `O=C(Nc1ccc(F)cc1)Nc1ccccc1OCc1cc(=O)n2ccccc2n1`, the IC50 is > 40 µM (inactive).

As to `Cc1cc(=O)[nH]c(SCC(=O)c2cc(C)n(CCC3=CCCCC3)c2C)c1C#N`, the IC50 is > 40 µM (inactive).

`O=C(NCc1ccc(Cl)cc1)c1cc2c(s1)-c1ccccc1OC2`: the IC50 was > 40 µM (inactive).

Take `O=C(Cn1c(=O)c2cccn2c2ccccc21)NCc1ccc(F)cc1`: the IC50 is > 40 µM (inactive).

With `CC(C)(C)C(=O)Nc1ccc(C(=O)Nc2cccc(-c3nnc(-c4ccccc4)o3)c2)cc1`, the IC50 was > 40 µM (inactive).

Consider `O=C(c1cc(S(=O)(=O)Nc2ccc(Cl)cc2)ccc1Cl)N1CCCc2ccccc21`, for which the IC50 is > 40 µM (inactive).

With `O=C(COc1ccc(Cl)cc1)Nc1noc(-c2cccs2)n1`, the IC50 was > 40 µM (inactive).

For `O=c1c2[nH]c3ccccc3c2ncn1CCC1=CCCCC1`, the IC50 is > 40 µM (inactive).

Regarding `Cc1ccc(NC(=O)Cc2nnc3c(-c4nc(C5CC5)no4)cccn23)cc1F`, the IC50 was 30.3 µM.

Consider `O=C(Cn1c(CNC(=O)c2ccccc2)nc2ccccc21)Nc1ccc(F)cc1`, for which the IC50 is > 40 µM (inactive).

In the case of `CCOc1ccc(CCNC(=O)Cn2c(-c3ccc(F)cc3)cc(C(C)=O)c2C)cc1OCC`, the IC50 is > 40 µM (inactive).

In the case of `N#Cc1cccc(NC(=O)c2[nH]nc3c2COc2ccccc2-3)c1`, the IC50 is 38.3 µM.

With `CC(C)(C)C(=O)[C@@H]1[C@@H](C(=O)c2ccc3c(c2)OCO3)[C@@]2(C(=O)Nc3ccccc32)[C@H]2c3ccccc3C=CN12`, the IC50 is 7.11 µM.

Take `O=C(NC1CCCC1)C1CC(=O)N(c2cccc(-c3noc(-c4cccs4)n3)c2)C1` (stereo unspecified): the IC50 is > 40 µM (inactive).

Take `O=c1c2ccccc2nc(CSc2cccc(Cl)c2Cl)n1-c1ccccc1`: the IC50 was > 40 µM (inactive).

`COc1ccc(-c2cc3nc([C@H](C)NC(=O)Cc4cc(F)ccc4F)nn3cn2)cc1`: the IC50 was > 40 µM (inactive).

As to `O=C(CSc1nc2c(cnn2-c2ccccc2)c(=O)[nH]1)Nc1ccc(Cl)cc1F`, the IC50 is 32.1 µM.

The IC50 is the concentration that gives 50% inhibition.
